From patent publication US20250155354A1, “METHOD AND DEVICE FOR HIGH THROUGHPUT CELL DEFORMABILITY MEASUREMENTS” (THE REGENTS OF THE UNIVERSITY OF CALIFORNIA, priority 2010, published 2025) come the findings set out here.

This assay deals with cervical carcinoma cells (HeLa). Description: Cell deformability measurement of drug-treated HeLa cells in microfluidic extensional flow (cytoskeletal disruption). The class given is cell-based. Here is the method:
Still referring to FIG. 4, post-processing (operation 450) is conducted on the data 80 to determine cell size, cell deformation, and cell circularity. The cells 50 passing through the system 10 may either be of a known phenotype or an unknown phenotype as illustrated by operation 400. As part of the post processing operation 450, the size of the cell 50 prior to entering the extensional region 40 is determined. The cell diameter (d) is determined as the average of the minimum cell diameters at […] to horizontal prior to entering the extensional region 40 (approximately four (4) frames prior to entering extension region 40). By taking the size measurements from the vertical axis, noise due to blur attributed to high velocities in the horizontal direction is reduced. As the cell 50 enters the extension region 40 and changes trajectory the deformability and circularity parameters are measured. In the frame where the largest deformation is calculated, the corresponding circularity is recorded as well. The deformability parameter is determined by the ratio a/b of the maximum diameter (a) in the vertical direction at 90°±30° to the minimum diameter (b) in the horizontal direction at 0°±30°. The circularity parameter is calculated by (4πA/L^2) wherein A is the area of the observed cell and L is the perimeter of the cell. […]

In the case of `C/C1=C/C(=O)O[C@@H]2C[C@@H](CC[C@H](C)/C=C\C=C\CC1)O[C@@](O)([C@@H]1CSC(=O)N1)C2` [Latrunculin, Latrunculin A], the “cell deformability (a/b) versus untreated HeLa control” value (HeLa cells incubated in 0.1 μM Latrunculin A for 4 hours prior to deformability assay) was “significantly more deformable”.

Consider `COC(=O)Nc1nc2ccc(C(=O)c3cccs3)cc2[nH]1` [Nocodazole], for which, where the note is “HeLa cells incubated in 2 μM nocodazole for 1 hour prior to deformability assay”, the “cell deformability (a/b) versus untreated HeLa control” value is given as “more rigid than untreated cells”.
